Experiments:
[1] = biological target: Stat3 (Mus musculus, UniProt P42227); test: Stat3 DNA-binding activity in vitro, electrophoretic mobility shift assay (EMSA) on nuclear extracts; format: biochemical; settings: nuclear extracts containing activated Stat3 pre-incubated with compound 30 min at room temperature, radiolabeled hSIE probe
Method: FIGS. 3A-3D. show the effect of aryl sulfonamido compounds described herein on Stat3 DNA-binding activity in vitro. […] Positions of Stat3:DNA complexes in gel are labeled; control lanes (0) represent nuclear extracts pre-treated with 10% DMSO.
Nuclear extract preparation, gel shift assays, and densitometric analysis. […] Except where indicated, nuclear extracts were pre-incubated with compound for 30 min at room temperature prior to incubation with the radiolabeled probe for 30 min at 30° C. before subjecting to EMSA analysis. Where appropriate, bands corresponding to Stat3:DNA complexes were scanned and quantified for each concentration of compound using ImageJ and plotted as percent of control (DMSO) against concentration of compound, from which the IC50 values were derived.
The inhibitory activities of the representative analogs against in vitro Stat3 DNA-binding activity, as measured by electrophoretic mobility shift assay (EMSA) for representative compounds from the Examples above are shown in FIGS. 3A-3D and summarized in Table 1.
Table 1. Stat3 DNA-binding activity in vitro of aryl sulfonamido compounds described herein, including their corresponding referenced names (e.g., H203), as measured by electrophoretic mobility shift assay (EMSA). The inhibition metrics are presented in units of micromolar (μM).

[2] = system: Stat3 DNA-binding activity in MDA-MB-231 cells; test: EMSA of nuclear extracts from treated human breast cancer cells (intracellular Stat3 signaling); format: cell-based; settings: 0.5, 1, 2, 3, 4, 5 and 10 μM, 0-72 h
Method: Nuclear extract preparation, gel shift assays, and densitometric analysis. […] The ^32P-labeled oligonucleotide probes used were hSIE (high affinity sis-inducible element from the c-fos gene, m67 variant, 5′-[…]) (SEQ ID NO: 1) that binds Stat1 and Stat3 and MGFe (mammary gland factor element from the bovine β-casein gene promoter, 5′-[…]) (SEQ ID NO: 2) for Stat1 and Stat5 binding. Except where indicated, nuclear extracts were pre-incubated with compound for 30 min at room temperature prior to incubation with the radiolabeled probe for 30 min at 30° C. before subjecting to EMSA analysis. Where appropriate, bands corresponding to Stat3:DNA complexes were scanned and quantified for each concentration of compound using ImageJ and plotted as percent of control (DMSO) against concentration of compound, from which the IC50 values were derived.
Aryl sulfonamido azetidine compounds were investigated for their inhibitory effects of the active analogs on intracellular Stat3 signaling. […] Nuclear extracts are prepared and subjected to EMSA analysis for Stat3 DNA-binding activity. […] Stat3 DNA-binding activity in MDA-MB-231 cells, is inhibited by the compounds following treatment as measured periodically up to 72 h.

[3] = system: subcutaneous MDA-MB-231 tumor xenografts; test: Growth of subcutaneous MDA-MB-231 tumor xenografts; format: in vivo, mouse; settings: 10 mg/kg every other day, intraperitoneally, vs vehicle control
Method: (§1) (5 mice per group). The subjects were administered intraperitoneally.

[4] = Body weight of treated mice in the xenograft study; format: in vivo, mouse; settings: 10 mg/kg every other day, intraperitoneally, treated vs untreated mice
Method: as §1

[5] = system: MDA-MB-231; test: Cell growth by trypan blue exclusion/phase-contrast microscopy; format: cell-based; settings: Homo sapiens, MDA-MB-231, read-out: IC50, MDA-MB-231 cell growth
Method: FIGS. 1A-1N. Show the effects of aryl sulfonamido azetidine compounds on cell viability in vitro relative to control (untreated cells). […] Cells in 6-well plates were treated once with 0.05% DMSO, or at the indicated concentrations (0.5, 1, 2, 3, 4, 5 and 10 μM if not otherwise so indicated) of the test compounds. […] The compound names are correlated with the structures provided in the Examples in Table 1.
Cell proliferation and viability assay. […] Cells in 6-well or 96-well plates were treated with or without compounds for the indicated concentrations and time, and subjected to MTT assay or CyQuant cell proliferation assay (Invitrogen/ThermoFisher Scientific), or harvested and the viable cells were counted by trypan blue exclusion with phase-contrast microscopy.
Constitutive Stat3 activity promotes tumor cell growth and proliferation and survival (Darnell J E (2005) Nat Med. 11:595-6; Bowman T, et al., (2000) Oncogene 19:2474-2488). An aryl sulfonamido azetidine compound, H182, was tested against tumor cells harboring constitutively-active Stat3.

Stat3, sequence (P42227 2-770): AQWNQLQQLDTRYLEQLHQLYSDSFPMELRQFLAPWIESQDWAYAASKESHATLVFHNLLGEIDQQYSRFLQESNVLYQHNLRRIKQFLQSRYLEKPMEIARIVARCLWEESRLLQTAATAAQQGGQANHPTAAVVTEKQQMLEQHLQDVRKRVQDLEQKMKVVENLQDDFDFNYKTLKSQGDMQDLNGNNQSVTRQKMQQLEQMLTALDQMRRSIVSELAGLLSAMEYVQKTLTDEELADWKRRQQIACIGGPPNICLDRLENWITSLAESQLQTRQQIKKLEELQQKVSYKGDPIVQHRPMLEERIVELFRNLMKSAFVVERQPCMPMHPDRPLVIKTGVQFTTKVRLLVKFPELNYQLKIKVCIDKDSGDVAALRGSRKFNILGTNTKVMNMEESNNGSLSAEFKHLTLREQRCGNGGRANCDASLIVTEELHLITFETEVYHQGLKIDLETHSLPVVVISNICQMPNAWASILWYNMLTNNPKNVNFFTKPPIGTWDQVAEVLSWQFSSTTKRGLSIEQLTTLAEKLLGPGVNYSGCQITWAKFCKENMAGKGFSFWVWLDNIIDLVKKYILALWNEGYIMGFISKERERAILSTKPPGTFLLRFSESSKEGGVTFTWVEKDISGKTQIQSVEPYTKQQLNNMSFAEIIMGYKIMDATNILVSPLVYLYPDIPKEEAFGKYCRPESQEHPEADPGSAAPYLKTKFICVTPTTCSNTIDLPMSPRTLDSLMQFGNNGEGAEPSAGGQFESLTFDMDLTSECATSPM

IC50 [1] | SMILES | Stat3 DNA-binding activity in MDA-MB-231 cells [2] | other results
0.866 ± 0.085 µM | Cn1ccc2cc(N(Cc3ccc(C4CCCCC4)cn3)C(=O)[C@H]3CCN3S(=O)(=O)c3c(F)c(F)c(F)c(F)c3F)ccc2c1=O [Example 22, (R)—N-((5-cyclohexylpyridin-2-yl)methyl)-N-(2-methyl-1-oxo-1,2-dihydroisoquinolin-6-yl)-1-((perfluorophenyl)sulfonyl)azetidine-2-carboxamide] | – | –
1.15 ± 0.04 µM | Cn1cnc2cc(N(Cc3ccc(C4CCCCC4)cn3)C(=O)[C@H]3CCN3S(=O)(=O)c3c(F)c(F)c(F)c(F)c3F)ccc2c1=O [Example 23, (R)—N-((5-cyclohexylpyridin-2-yl)methyl)-N-(3-methyl-4-oxo-3,4-dihydroquinazolin-7-yl)-1-((perfluorophenyl)sulfonyl)azetidine-2-carboxamide] | – | –
0.788 ± 0.039 µM | O=C([C@H]1CCN1S(=O)(=O)c1c(F)c(F)c(F)c(F)c1F)N(Cc1ccc(C2CCCCC2)cn1)c1ccc2c(=O)[nH]ccc2c1 [Example 25, (R)—N-((5-cyclohexylpyridin-2-yl)methyl)-N-(1-oxo-1,2-dihydroisoquinolin-6-yl)-1-((perfluorophenyl)sulfonyl)azetidine-2-carboxamide] | – | –
– | O=C([C@H]1CCN1S(=O)(=O)c1c(F)c(F)c(F)c(F)c1F)N(Cc1ccc(C2CCCCC2)nc1)c1ccc2c(=O)[nH]ncc2c1 [Example H172] | inhibited | –
– | O=C([C@H]1CCN1S(=O)(=O)c1c(F)c(F)c(F)c(F)c1F)N(Cc1ccc(C2CCCCC2)cn1)c1ccc2c(=O)[nH]cnc2c1 [Example H182] | inhibited | tumor growth [3]: reduce the tumor growth rate; body weight [4]: maintaining subject body weight; IC50 [5]: < 10 µM

— patent US20220289720A1, “ARYL SULFONAMIDES AS SMALL MOLECULE STAT3 INHIBITORS” (UNIVERSITY OF HAWAII, priority 2019, published 2022)
